In PMC9415509, “Pro-Apoptotic Antitumoral Effect of Novel Acridine-Core Naphthoquinone Compounds against Oral Squamous Cell Carcinoma” (Molecules, 2022):
“And” between values parts separate entries of the source, which are not always exact repeats. Equal values may be shown once.

Legend:
Assay type in all cases: cell-based, human
SCC9 (OSCC cell) = experiment: MTT cell viability assay (cytotoxicity), SCC9
Experimental: Cells and reagents. Human SCC-4, SCC-9, and SCC-25 cells, derived from a human oral tongue SCC (squamous cell carcinoma) were obtained from the ATCC (CRL-1624, CRL-1629, and CRL-1628, respectively) and maintained in 1:1 DMEM/F12 (Dulbecco’s modified Eagle medium and Ham’s F12 medium; Gibco (Thermo Fisher, Waltham, MA, USA)) supplemented with 10% (v/v) FBS (fetal bovine serum; Invitrogen, Thermo Fisher, Waltham, MA, USA) and 400 ng/mL hydrocortisone (Sigma-Aldrich Co., St. Louis, MO, USA). Primary normal human gingival fibroblasts were obtained from the ATCC (PCS-201-018) and maintained in DMEM supplemented with 10% (v/v) FBS and were used in a maximum of six passages. The cells were grown in a humidified environment containing 5% CO2 at 37 °C. […] Carboplatin stock was prepared in water (Fauldcarbo®; LibbsFarmacêutica, São Paulo, SP, Brazil) and was used as a standard anticancer compound.
(§1) Cell viability assay (cytotoxicity) and compound stability assay. The viability of SCC cell lines and primary human fibroblast cells was evaluated using the MTT assay as in [48]. Briefly, the cells were grown in triplicates in 96-well plates (5 × 10^3 cells/well) until confluence. Then, the medium was removed, fresh medium was added, and the cells were returned to the incubator in the presence of different compounds. DMSO at the same concentrations was used as a 100% cell viability control. After 48 h, the cells were incubated with 5 mg/mL MTT reagent (3-(4,5-dimethyl-2-thiazolyl)-2,5-diphenyl-2-H-tetrazolium bromide) (Sigma-Aldrich Co., St. Louis, MO, USA) for 3.5 h. After that, formazan crystals were dissolved in MTT solvent solution (DMSO/methanol 1:1 v/v) and the absorbance at 560 nm was evaluated using an EPOCH microplate spectrophotometer (BioTek Instruments, Winooski, VT, USA) with the background absorbance at 670 nm subtracted.
Statistical analysis, IC50 calculation. The data are presented as means ±\SD. IC50 values for the MTT assays were obtained by nonlinear regression using the […] 5.0 program (Intuitive Software for Science, San Diego, CA, USA) from at least three independent experiments. A dose–response (inhibitor) vs. response curve using the least squares method was used to determine the IC50, SD, and R^2 of the data. The selectivity index was calculated as SI = IC50 of the compound in normal oral fibroblast cells/IC50 of the same compound for each oral cancer cell line (SCC-4, SCC-9, and SCC-25) and the mean was calculated when indicated.

[1] = tested on: OSCC cells (SCC-4, SCC-9, SCC-25); experiment: MTT cytotoxicity and selectivity, mean over OSCC cell lines
Experimental: as §1
Statistical analysis, IC50 calculation. The data are presented as means ±\SD. IC50 values for the MTT assays were obtained by nonlinear regression using the […] […] The selectivity index was calculated as SI = IC50 of the compound in normal oral fibroblast cells/IC50 of the same compound for each oral cancer cell line (SCC-4, SCC-9, and SCC-25) and the mean was calculated when indicated.

SCC9 cells [2] = experiment: SubG1 analysis (DNA fragmentation), flow cytometry; details: SCC9, 72 h of treatment, PI staining
Experimental: Cell cycle and SubG1 analysis. To evaluate the action of compound 4e on the cell cycle and DNA fragmentation, cells of the SCC9 cell line were plated in a 6-well plate (5 × 10^5 cells/well). After 48 (cell cycle) or 72 h (DNA fragmentation) of treatment, the cells were trypsinized and stained with propidium iodide (75 µM) in the presence of NP-40. The DNA content was analyzed by collecting 10,000 events using a FACScalibur flow cytometer. The data were analyzed using CellQuest (BD Biosciences, Franklin Lakes, NJ, USA) and FlowJo (Tree Star Inc., Ashland, OR, USA) software as in [49].

SCC9 cells [3] = experiment: Caspase 3/7 activity, flow cytometry; details: SCC9, 2× IC50, 48 h
Experimental: (§2) Phosphatidylserine exposure analysis (apoptosis). Cells of the SCC9 cell line were plated in 6-well plates (5 × 10^5 cells/well), trypsinized 48 h after treatment, labeled using the Annexin V-FITC Apoptosis Detection Kit according to the manufacturer’s protocol (#BMS500FI/300, Invitrogen), and analyzed by FACScalibur flow cytometry as in [50]. Furthermore, 5 × 10^4 SCC9 cells were plated in a 24-well plate containing 1 mL of DMEM/F12 with 10% FBS per well. CellEvent™ Caspase-3/7 Reagent (#R37111, Invitrogen) was diluted in a culture medium according to the manufacturer’s instructions. […] The cells were analyzed by flow cytometry at the time of 48 h of treatment.

SCC9 cells [4] = experiment: Phosphatidylserine exposure analysis (Annexin V/PI); details: SCC9, 48 h
Experimental: as §2

SCC9-LC3-GFP cells = experiment: Autophagy assay (LC3-GFP puncta); details: 4e 2 × IC50, 48 h; CPP 20% (v/v) 4–6 h
Experimental: Autophagy assay. To determine if compound 4e induces autophagy, SCC9 cells were stably transduced with LC3-GFP expressing plasmid. For the generation of SCC9 cell lines harboring LC3-GFP, HEK293FT cells were transfected with 3 µg of each helper plasmids (pMDLglpRRE, pHCMV g, and pRSVrev) and 8 µg of the pLV-CMV-SV40-Puro-GFP-LC3 using calcium phosphate and 25 µM chloroquine. Twenty-four hours later, a lentivirus-containing medium was harvested, supplemented with 8 µg/mL of Polybrene, and used to transduce SCC9 cells. Twenty-four hours later, the transduced cells were selected with 5 µg/mL of Puromycin for 7 days. The cells were then cultured with 2.5 µg/mL Puromycin for further experiments. The lentiviral construct encoding pLV-CMV-SV40-Puro-GFP-LC3 was a gift from Dr. SilvyaStuchi Maria Engler. […] As a positive control, calcium phosphate precipitates (CPP) were prepared by adding CaCl2 dropwise to Na2HPO4 (in Hepes, pH 7.05) as previously described. CPP 20% (v/v) was administrated to the cells 4–6 h before analysis.

SCC9 cells [5] = experiment: Time-lapse video microscopy; details: SCC9, 2 × IC50, 72 h time-lapse
Experimental: Video microscopy. […] For 72 h, phase-contrast images of the same field were captured every minute using a Hamamatsu C2400 CCD camera (Hamamatsu, Japan). The images of each experimental condition were integrated into videos using ImageJ software (National Institute of Health, Bethesda, MD, USA), and different times (indicated) were selected according to the morphological change observed during the treatment.

In the case of `CC1(C)CC(=O)C2=C(C1)NC1=C(C(=O)c3ccccc3C1=O)C2c1ccc(Cl)cc1Cl` (stereo not drawn) [4e, 12-(2,4-dichlorophenyl)-3,3-dimethyl-3,4-dihydrobenzo[b]acridine-1,6,11(2H,5H,12H)-trione], the IC50 (SCC9 (OSCC cell); Homo sapiens, SCC-9, SCC9, 48 h, MTT (Table 1), read-out: SCC9—Oral Cancer IC50) is reported as 14.7 µM, the “SCC9 S.I.” value (SCC9 (OSCC cell); IC50 normal oral fibroblasts / IC50 SCC9) is reported as 6.0 and the IC50 ([1]; Homo sapiens, mean of SCC4, SCC9, SCC25) is reported as 30 µM. The “SI (mean selectivity index)” value ([1]; mean over OSCC cell lines vs normal fibroblasts) was 2.9 and 2.93, the “DNA fragmentation (Sub-G1 DNA-content), cells” value (SCC9 cells [2]) was 25.5% and ~ 25% and the “active caspase 3/7 labeling, cells” value (SCC9 cells [3]) was 52.4% and ~ 52%. For the same compound, the “Annexin V and Annexin V + PI staining” value (SCC9 cells [4]) was “increased single (Annexin V) and double (Annexin V + PI) staining”, the “LC3-GFP puncta formation (autophagy)” value (SCC9-LC3-GFP cells) was “neither DMSO nor 4e were able to induce this cell death process” and the cell morphology (SCC9 cells [5]) was “formation of membrane blebs at early times, between 16 and 48 h, followed by cells shrinkage”.
